Measured values reported in patent US20250032409A1, “TREATMENT OF LOW-GRADE INTERMEDIATE-RISK NON-MUSCLE-INVASIVE BLADDER CANCER WITH A THERMALLY GELLING PHARMACEUTICAL COMPOSITION CONTAINING MITOMYCIN” (priority 2023, published 2025).

Tests used:
LG NMIBC = conditions: dose-intensive administration as primary therapy for LG NMIBC; cited from earlier work
[1] = OPTIMA II: mitomycin plasma concentrations; type: in vivo, human
[2] = human, plasma, other: instillation, read-out: Mitomycin plasma concentration, mean (standard deviation)

CO[C@@]12[C@H](COC(N)=O)C3=C(C(=O)C(C)=C(N)C3=O)N1C[C@@H]1N[C@@H]12 [Mitomycin]
CR rates (LG NMIBC): 50-60%
Mitomycin plasma concentration, mean (standard deviation) ([1]; Pre-instillation, 6 patients, UGN-102): 0 ng/mL
AUC ([1]; human, plasma, other: instillation, read-out: Concentration-time Curve (AUC) - Mean (standard deviation)): 5.69 ng·h/mL
concentration at 0.5 h [1, 2]: 0.75 ng/mL
concentration at 1 h [1, 2]: 0.6 ng/mL
concentration at 2 h [1, 2]: 0.34 ng/mL
concentration at 3 h [1, 2]: 1.88 ng/mL
concentration at 4 h [1, 2]: 1.93 ng/mL
concentration at 5 h [1, 2]: 0.57 ng/mL
concentration at 6 h [1, 2]: 0.32 ng/mL
Cmax ([1]; human, plasma, other: intravesical instillation (via urethral catheter), read-out: Concentration (Cmax)): 2.27 ng/mL
